Source: patent US7566787B2, “Small molecule cyclin D1 ablative agents” (The Ohio State University, priority 2004, dated 2009)
Where two headings read alike, the source gives them in different places.

What was measured:
MCF-7 cells = assay: MTT cell viability assay; assay type: cell-based; details: Homo sapiens
Procedure: Cell viability analysis. The effect of individual test agents on cell viability was assessed by using the MTT [3-(4,5-dimethylthiazol-2-yl)-2,5-diphenyl-2H-tetrazolium bromide] assay in six replicates. Cells were seeded and incubated in 96-well, flat-bottomed plates in DMEM-F12 media with 10% FBS for 24 h, and were exposed to various concentrations of test agents dissolved in DMSO (final DMSO concentration, 0.1%) in 5% FBS-supplemented DMEM-F12 medium. Controls received DMSO vehicle at a concentration equal to that of drug-treated cells. The medium was removed, replaced by 200 μl of 0.5 mg/ml of MTT in 10% FBS-containing RPMI-1640 medium, and cells were incubated in the CO2 incubator at 37° C. for 2 h. Supernatants were removed from the wells, and the reduced MTT dye was solubilized in 200 μl/well DMSO. Absorbance at 570 nm was determined on a plate reader.

cyclin D1 = assay: Western blot analysis of cyclin D1 expression in MCF-7 cells; assay type: cell-based, human; details: for concentration at which cyclin D1 levels are reduced: FIG. 8B; for minimum concentration required for the complete ablation of cyclin D1: 24 h, 5% FBS
Procedure: (§1) Western Blot Analysis. MCF-7 or MDA-MB-231 cells were seeded in 10% FBS-containing DMEM-F-12 for 24 h and treated with various agents as indicated. After individual treatments for 24 h, both the incubation medium and adherent cells in T-25 or T-75 flasks were scraped and collected by centrifugation at 2,000×g for 10 min. The pellets were recovered, placed on ice, and triturated with 20 to 50 μl of a chilled lysis buffer (M-PER® Mammalian Protein Extraction Reagent, Pierce, Rockford, Ill.) to which was added 1% protease inhibitor cocktail (set III, EMD Biosciences, Inc. San Diego, Calif.). After a 30 min-incubation on ice, the mixture was centrifuge at 16,100×g for 3 min. Two μl of the suspension was taken for protein analysis using the Bradford assay kit (Bio-Rad, Hercules, Calif.). To the remaining solution was added the same volume of 2× SDS-PAGE sample loading buffer (100 mM Tris-HCl, pH 6.8, 4% SDS, 5% β-mercaptoethanol 20% glycerol, and 0.1% bromophenol blue). The mixture was boiled for 10 min. Equal amounts of proteins were loaded onto 10% SDS-PAGE gels. After electrophoresis, protein bands were transferred to nitrocellulose membranes in a semi-dry transfer cell. The transblotted membrane was blocking with TBST [Tris-buffered saline (TBS) containing 0.1% Tween 20] containing 5% nonfat milk for 90 min, and the membrane was incubated with the appropriate primary antibody in TBST-5% nonfat milk at 4° C. overnight. After washing three times with TBST for a total of 45 min, the transblotted membrane was incubated with goat anti-rabbit or anti-mouse IgG-horseradish peroxidase conjugates (diluted 1:1000) for 1 h at room temperature and washed four times with TBST for a total of 1 h. The immunoblots were visualized by enhanced chemiluminescence.

PPARγ = target: T1, PPARγ (Homo sapiens, UniProt P37231); assay: Analysis of PPARγ activation (PPARγ transcription factor ELISA, MCF-7 nuclear extracts); assay type: cell-based; details: 10 μM, 48 h, MCF-7 cells
T1 construct: endogenous in cells; host or cells: MCF-7 (nuclear extracts)
T1 sequence (P37231 1-505): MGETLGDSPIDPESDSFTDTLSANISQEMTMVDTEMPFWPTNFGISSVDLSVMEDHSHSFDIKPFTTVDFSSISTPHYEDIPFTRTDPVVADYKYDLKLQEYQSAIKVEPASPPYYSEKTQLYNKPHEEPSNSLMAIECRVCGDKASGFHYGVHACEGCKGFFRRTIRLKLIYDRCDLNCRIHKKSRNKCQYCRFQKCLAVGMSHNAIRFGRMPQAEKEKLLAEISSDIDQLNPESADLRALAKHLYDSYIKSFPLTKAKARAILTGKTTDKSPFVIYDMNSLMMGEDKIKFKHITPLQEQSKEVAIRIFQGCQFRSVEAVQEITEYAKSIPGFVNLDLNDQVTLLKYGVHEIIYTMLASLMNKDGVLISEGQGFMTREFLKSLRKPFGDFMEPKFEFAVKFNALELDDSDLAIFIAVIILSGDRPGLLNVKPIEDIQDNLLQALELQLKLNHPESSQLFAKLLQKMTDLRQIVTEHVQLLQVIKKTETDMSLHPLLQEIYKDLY
Procedure: Analysis of PPARγ activation. The analysis was carried out by using a PPARγ transcription factor ELISA kit (Active Motif, Carlsbad, Calif.), in which an oligonucleotide containing the peroxisome proliferator response element (PPRE) was immobilized onto a 96-well plate. PPARs contained in nuclear extracts bind specifically to this oligonucleotide and are detected through an antibody directed against PPARγ. In brief, MCF-7 cells were cultured in RPMI 1640 medium supplemented with 10% FBS, and treated with DMSO vehicle or individual test agents, 10 μM each, for 48 h. Cells were collected, and nuclear extracts were prepared with a Nuclear Extract kit (Active Motif, Carlsbad, Calif.). Nuclear extracts of the same protein concentration from individual treatments were subject to the PPARγ transcription factor ELISA according to the manufacturer's instruction.

ERα = assay: Western blot analysis of ERα expression in MCF-7 cells; assay type: cell-based, human; details: 24 h
Procedure: as §1, with “The transblotted membrane was blocking with TBST [Tris-buffered saline (TBS) containing 0.1% Tween 20] containing 5% nonfat milk for 90 min, and the membrane was incubated with the appropriate primary antibody in TBST-5% nonfat milk at 4° C. overnight. After washing three times with TBST for a total of 45 min, the transblotted membrane was incubated with goat anti-rabbit or anti-mouse IgG-horseradish peroxidase conjugates (diluted 1:1000) for 1 h at room temperature and washed four times with TBST for a total of 1 h. The immunoblots were visualized by enhanced chemiluminescence.” left out

cyclin D1 gene mRNA = assay: RT-PCR analysis of mRNA transcripts of cyclin D1 gene in MCF-7 cells; assay type: cell-based, human; details: 24 h exposure, 40 μM TG, 30 μM Δ2-TG
Procedure: Reverse transcriptase (RT-) PCR analysis of mRNA transcripts of cyclin D1 gene. MCF7 cells were subject to total RNA isolation by using RNeasy mini kit (Qiagen, Valencia, Calif.). RNA concentrations and quality were assessed spectrophotometrically by measuring absorption at 260 nm. Aliquots of 20 μg of total RNA from each sample was reverse transcribed to cDNA using Omniscript RT Kit (Qiagen) according to manufacturer's instructions. The primers used were as follows: cyclin D1, forward, 5′-[…]-3′, reverse, 5′-[…]-3′; β-actin, forward, 5′-[…]-3′, reverse, 5′-[…]-3′. The reaction conditions were as follows: for cyclin D1 (a) initial denaturation at 95° C. for 5 min; (b) 34 cycles of amplification (95° C. for 1 min, 65° C. for 1 min 45 s, and 72° C. for 1 min); and (c) a final extension step of 10 min at 72° C.; for β-actin (a) initial denaturation at 95° C. for 3 min; (b) 40 cycles of amplification (95° C. for 30 s, 58° C. for 20 s, and 72° C. for 45 s); and (c) a final extension step of 10 min at 72° C.

[1] = test system: cyclins D2, D3, A, B, and E, and cyclin-dependent kinases (CDKs) 2 and 4; assay: Western blot of other cyclins and CDKs in MCF-7 cells; assay type: cell-based, human; details: different doses, 24 h
Procedure: as §1, with “The transblotted membrane was blocking with TBST [Tris-buffered saline (TBS) containing 0.1% Tween 20] containing 5% nonfat milk for 90 min, and the membrane was incubated with the appropriate primary antibody in TBST-5% nonfat milk at 4° C. overnight. After washing three times with TBST for a total of 45 min, the transblotted membrane was incubated with goat anti-rabbit or anti-mouse IgG-horseradish peroxidase conjugates (diluted 1:1000) for 1 h at room temperature and washed four times with TBST for a total of 1 h. The immunoblots were visualized by enhanced chemiluminescence.” left out

ubiquitinated cyclin D1 = assay: Coimmunoprecipitation/Western blot of cyclin D1 ubiquitination in MCF-7 cells; assay type: cell-based, human; details: 30 μM TG or 20 μM Δ2-TG, 20 h
Procedure: Coimmunoprecipitation/Western Blot. MCF-7 cells were cultured in 10% FBS-containing DMEM-F-12 in 75-mm plates for 24 h. Cell were treated with DMSO vehicle, 30 μM TG, or 20 μM Δ2-TG in 5% FBS-containing DMEM-F12 medium for another 20 hours. Cells were rinsed with PBS at room temperature, scraped off the flask, transferred into centrifuge tubes, and centrifuged at 2,000×g for 10 min to pellet the cells. […] These cell lysates were treated with 100 μl of protein A-agarose bead slurry, followed by brief centrifugation, to remove nonspecific binding proteins. Equal amounts of proteins from these lysates, as determined by the Bradford assay, were mixed with anti-cyclin D1 in an orbital shaker at 23° C. for 2 h, followed by 100 μl of protein A-agarose bead slurry at 4° C. for 12 h. The immunocomplex was collected by brief centrifugation, washed 4 times with 800 μl of ice-cold RIPA buffer, and suspended in 50 μl of the aforementioned 2× SDS sample loading buffer. The suspension was boiled for 10 min, cooled, and briefly centrifuged to remove the beads. Western blot analysis was performed with anti-cyclin D1 or anti-ubiquitin as described above.

GSK-3β = assay: Western blot of GSK-3β phosphorylation in MCF-7 cells; assay type: cell-based, human; details: different doses
Procedure: as §1, with “The transblotted membrane was blocking with TBST [Tris-buffered saline (TBS) containing 0.1% Tween 20] containing 5% nonfat milk for 90 min, and the membrane was incubated with the appropriate primary antibody in TBST-5% nonfat milk at 4° C. overnight. After washing three times with TBST for a total of 45 min, the transblotted membrane was incubated with goat anti-rabbit or anti-mouse IgG-horseradish peroxidase conjugates (diluted 1:1000) for 1 h at room temperature and washed four times with TBST for a total of 1 h. The immunoblots were visualized by enhanced chemiluminescence.” left out

[2] = MCF7, 24 h, 5% FBS, MTT, FIG. 8D, read-out: IC50 in inhibiting MCF-7 cell proliferation
[3] = MCF7, cell viability data, read-out: IC50 for MTT

Row | IC50 (MCF-7 cells; [2]) | IC50 (MCF-7 cells; [3]) | IC50 (cyclin D1; western blot data, read-out: IC50 for WB) | PPARγ activation (PPARγ) | SMILES | potency in ablating cyclin D1 relative to Δ2-TG (cyclin D1) | concentration at which cyclin D1 levels are reduced (cyclin D1) | minimum concentration required for the complete ablation of cyclin D1 (cyclin D1) | effect on ERα expression (ERα) | time of complete ablation of cyclin D1 (cyclin D1; 40 μM TG, 30 μM Δ2-TG) | mRNA level of cyclin D1 (cyclin D1 gene mRNA) | expression level of cyclin D2 and CDK4 [1] | expression level of the other cyclins and CDKs (D3, A, B, E, CDK2) [1] | extent of ubiquitination of cyclin D1 (ubiquitinated cyclin D1) | GSK-3β phosphorylation level (GSK-3β)
1 | 8 µM | 9 µM | 3 µM | devoid of activity | C=CCOc1c(C)c(C)c2c(c1C)CCC(C)(COc1ccc(/C=C3\SC(=O)NC3=O)cc1)O2 (stereo not shown) [TG-6, 5-[4-(6-allyoxy-2,5,7,8-tetramethyl-chroman-2-yl-methoxy)-benzylidene]-2,4-thiazolidinedione] | an-order-of-magnitude higher | ≥ 2.5 µM | – | – | – | – | – | – | – | –
2 | – | 70 µM | – | inactive | CC1(COc2ccc(/C=C3\SC(=O)NC3=O)cc2)CCCCC1 [Δ2-CG, 5-[4-(1-methyl-cyclohexylmethoxy)-benzylidene]-thiazolidine-2,4-dione] | – | – | 30 µM | able to reduce | – | – | – | – | – | –
3 | 55 µM | 57 µM | – | inactive | Cc1c(C)c2c(c(C)c1O)CCC(C)(COc1ccc(/C=C3\SC(=O)NC3=O)cc1)O2 (stereo not shown) [Δ2-TG, 5-[4-(6-hydroxy-2,5,7,8-tetramethyl-chroman-2-yl-methoxy)-benzylidene]-2,4-thiazolidinedione] | – | ≥ 20 µM | 30 µM | able to reduce | 24 h | remained unaltered | slight decrease | no appreciable effect | increased | remained unaltered
